Patent US20110263642A1, “METHODS FOR TREATMENT OF MULTIPLE SCLEROSIS” (FibroGen, Inc., priority 2008, published 2011)

What was measured:
[1] = tested on: EAE animal model of multiple sclerosis; test: EAE induced by MBP injection in Lewis rats, neurological disease scoring (first study, dosing day 3-21); assay type: in vivo; conditions: for reduction in disease severity compared to vehicle-treated control EAE animals: day 3 to day 21 after MBP injection
Text: Experimental allergic encephalomyelitis (EAE, also referred to as experimental autoimmune encephalomyelitis) is currently the best animal model of human multiple sclerosis (MS). In this model, induction of EAE occurs following, for example, injection of spinal cord homogenate or central nervous system (CNS) antigens, such as myelin basic protein (MBP), myelin olidgodendrocyte glycoprotein, or proteolipid protein. Approximately 10 days following injection of CNS antigens, susceptible rats (e.g., Lewis rats) develop a progressive paralysis similar to that observed in humans.
Female Lewis rats of approximately 220 grams were used in this study (Janvier; Le Genest St Isle, France). Compounds of the invention were formulated in water containing 10% cremophor and 60 mM L-histidine to achieve a final concentration of either 2 mg/ml or 6 mg/ml. Dexamethasone was dissolved in saline at a concentration of 0.1 mg/ml.
Induction of EAE by injection with myelin basic protein (MBP) antigen was performed as follows. Prior to injection with the MBP antigen (day 0), rats were anaesthetized by injection of 60 mg/kg of ketamine (Imalgene500®, Rhone Mérieux, Lyon, France) plus 4 mg/kg of xylazine (Rompum 2%, Bayer Pharma, Kiel, Germany). Rats were then injected in the hind footpad with a total volume of 100 μl of MBP inoculum solution per paw containing 100 μg of MBP antigen (Sigma, L'Isle d'Abeau Chesnes, France) emulsified (1:1) containing incomplete Freund's adjuvant (IFA) (Sigma, L'Isle d'Abeau Chesnes, France) and 500 μg of heat-inactivated mycobacterium tuberculosis (strain H 37 RA from Difco). Control rats were similarly injected with an equivalent volume of inoculum without MBP. […]
Neurological scoring was performed daily from day 7 to day 21 following BP injection. […] Analysis of variance (ANOVA) was performed on data from the measured (clinical score) or the calculated (severity score) parameters. […]
Cumulative EAE disease score, used as a measure of overall disease severity, was determined by adding all disease/neurological scores for each animal over the time course of the experiment.

[2] = tested on: EAE animal model of chronic progressive multiple sclerosis; test: Chronic progressive EAE induced by MOG35-55 and pertussis toxin in mice, neurological scoring to day 35; assay type: in vivo, C57BL/6 mice; conditions: for treated animals in which development of EAE disease was prevented / No. of Animals Showing No Disease Activity: through day 35
Text: A chronic progressive model of EAE is an accepted animal model of human chronic progressive multiple sclerosis (MS). In this model, induction of chronic progressive EAE occurs following injections of myelin oligodendrocyte glycoprotein (MOG). Approximately 8 to 14 days after injection of MOG, animals develop chronic progressive paralysis similar to that observed in humans with chronic progressive MS.
Female C57BL/6 mice (8-10 weeks old) were used in this study (Taconic Farm, CA). Compounds of the present invention were formulated in 0.5% carboxymethyl cellulose (CMC) with 0.1% Polysorbate 80 to achieve a final concentration of either 1.2 mg/ml or 4.0 mg/ml. FTY-720 was also formulated in 0.5% carboxymethyl cellulose (CMC) with 0.1% Polysorbate 80 to achieve a final concentration of 2.0 mg/ml.
Induction of chronic progressive EAE by injection with myelin oligodendrocyte glycoprotein (MOG) was performed as follows. Mice were injected subcutaneously with 200 μg of myelin oligodendrocyte glycoprotein (MOG35-55) peptide emulsion in both sides of their pectoral regions (50 μl each side). At 8 hours and 48 hr after immunization with MOG, animals were injected intraperitoneally with 400 ng of pertussis toxin (PT) in 100 μl of saline. Control mice received both injections with an equivalent volume of saline without MOG or PT.
[…] FTY-720 (10 mg/kg) was used in this study as a positive control and was administered daily from day 0 to day 35.
Neurological scoring was performed daily from day 7 to day 35 following MOG injection. Grading of disease severity (i.e., disease score) was based on the following observations performed by two different observers: 0=no abnormality; 1=distal weakness of the tail (limp tail); 2=limp tail and weakness of hind legs (mild paraparesis); 3=limp tail and complete paralysis of hind legs or paralysis in one of one front leg and one hind leg (moderate paraparesis); 4=limp tail, complete hind leg and partial front leg paralysis (moderate quadraparesis); 5=complete hind and front leg paralysis (moribund). Analysis of variance (ANOVA) was performed on data from the measured (neurological score) parameters. p value≦0.05 were considered significant.

## N#Cc1nc(C(=O)NCC(=O)O)c(O)c2c(Oc3ccccc3)cccc12 [Compound A, [(1-Cyano-4-hydroxy-5-phenoxy-isoquinoline-3-carbonyl)-amino]-acetic acid]
[1]; 10 mg/kg p.o. daily
  reduction in disease severity compared to vehicle-treated control EAE animals: 17%
[1]; 30 mg/kg p.o. daily, p<0.05
  reduction in disease severity compared to vehicle-treated control EAE animals: 46%
[1]; either 10 mg/kg or 30 mg/kg p.o. daily, day 3-21, FIG. 2
  cumulative disease score (AUC): reduced
[2]; 10 mg/kg as printed
  treated animals in which development of EAE disease was prevented: 40%
[2]; 10 mg/kg or 30 mg/kg as printed, p.o. three times a week, day 0-35, FIG. 5
  disease severity compared to vehicle-treated control EAE animals: reduction in disease severity at all timepoints
[2]; 30 mg/kg as printed, p<0.05
  treated animals in which development of EAE disease was prevented: 43%
[2]; first EAE/Cmpd A row, dose not printed in Table 4 (Table 3: 6 mg/kg/d, 3 times a week)
  No. of Animals Showing No Disease Activity: 6/15
[2]; second EAE/Cmpd A row, dose not printed in Table 4 (Table 3: 20 mg/kg/d, 3 times a week)
  No. of Animals Showing No Disease Activity: 6/14
